What all share (format): cell-based
The target in experiment [1] is T1, PPARα (Homo sapiens, UniProt Q07869).
T1 construct: expressed in transfected cells; host or cells: CV-1 cells
T1 sequence (Q07869 239-466 limits assumed): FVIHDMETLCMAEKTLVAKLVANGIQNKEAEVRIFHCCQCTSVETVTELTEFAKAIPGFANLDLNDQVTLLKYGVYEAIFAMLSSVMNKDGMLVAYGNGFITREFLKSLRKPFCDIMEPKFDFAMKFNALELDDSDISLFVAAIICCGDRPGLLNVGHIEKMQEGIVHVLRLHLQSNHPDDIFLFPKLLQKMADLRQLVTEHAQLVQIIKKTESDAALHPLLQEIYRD
As to the kind of experiment: PPAR-alpha EC50, functional cell (transactivation) assay. From the text: (§1) The following transfection assay methods are provided by way of example only. Compounds may be screened for functional potency in transient transfection assays in CV-1 cells for their ability to activate the PPAR subtypes (transactivation assay). A previously established chimeric receptor system was utilized to allow comparison of the relative transcriptional activity of the receptor subtypes on the same target gene and to prevent endogenous receptor activation from complicating the interpretation of results. See, for example, Lehmann, J. M.; Moore, L. B.; Smith-Oliver, T. A; Wilkinson, W. O.; Willson, T. M.; Kliewer, S. A., An antidiabetic thiazolidinedione is a high affinity ligand for peroxisome proliferator-activated receptor γ(PPARγ), J. Biol. Chem., 1995, 270, 12953-6. The ligand binding domains for murine and human PPAR-alpha, PPAR-gamma, and PPAR-delta are each fused to the yeast transcription factor GAL4 DNA binding domain. CV-1 cells were transiently transfected with expression vectors for the respective PPAR chimera along with a reporter construct containing five copies of the GAL4 DNA binding site driving expression of secreted placental alkaline phosphatase (SPAP) and p-galactosidase. After 16 h, the medium is exchanged to DME medium supplemented with 10% delipidated fetal calf serum and the test compound at the appropriate concentration. After an additional 24 h, cell extracts are prepared and assayed for alkaline phosphatase and pgalactosidase activity. Alkaline phosphatase activity was corrected for transfection efficiency using the p-galactosidase activity as an internal standard (see, for example, Kliewer, S. A., et. al. Cell 1995, 83, 813-819. Rosiglitazone is used as a positive control in the hPPARγ assay. The positive control in the hPPAR-alpha and hPPAR-delta assays was 2-[4-(2-(3-(4-fluorophenyl)-1heptylureido)ethyl)-phenoxy]-2-methylpropionic acid, which can be prepared as described in Brown, Peter J., et. al. Synthesis (7), 778-782 (1997), or patent publication WO 9736579.
(§2) Compounds of Examples 1-41 were assayed to measure their biological activity with respect to their EC50 values and efficacy for modulating PPAR-alpha, PPAR-gamma, and PPAR-delta as set forth in Table 2.

Experiment [2] concerns the target T2, PPARγ (Homo sapiens, UniProt P37231).
T2 construct: expressed in transfected cells; host or cells: CV-1 cells
T2 sequence (P37231 238-503 limits assumed): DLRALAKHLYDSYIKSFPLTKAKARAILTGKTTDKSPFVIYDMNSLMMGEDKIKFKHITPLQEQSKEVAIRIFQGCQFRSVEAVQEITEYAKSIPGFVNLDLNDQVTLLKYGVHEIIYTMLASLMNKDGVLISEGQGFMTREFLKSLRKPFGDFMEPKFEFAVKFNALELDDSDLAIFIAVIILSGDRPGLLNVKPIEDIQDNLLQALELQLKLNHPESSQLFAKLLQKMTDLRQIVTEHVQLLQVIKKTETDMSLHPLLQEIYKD
Kind of experiment: PPAR-gamma EC50, functional cell (transactivation) assay.
From the text: as §1, §2

The target of experiment [3] is T3, PPARδ (Homo sapiens, UniProt Q03181).
T3 construct: expressed in transfected cells; host or cells: CV-1 cells
T3 sequence (Q03181 211-439 limits assumed): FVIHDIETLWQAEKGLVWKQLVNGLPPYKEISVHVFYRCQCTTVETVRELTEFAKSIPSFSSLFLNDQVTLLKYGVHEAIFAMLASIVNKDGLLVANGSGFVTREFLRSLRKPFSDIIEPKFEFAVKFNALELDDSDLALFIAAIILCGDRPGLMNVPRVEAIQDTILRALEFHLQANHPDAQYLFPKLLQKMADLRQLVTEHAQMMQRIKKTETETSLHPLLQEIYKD
As to the kind of experiment: PPAR-delta EC50, functional cell (transactivation) assay.
From the text: as §1, §2

One may read the EC50 as the concentration giving half of the maximal effect. A high value points to a need for much substance.

Turning to `Cc1cc(S(=O)(=O)N2CCN(c3ccccc3F)CC2)ccc1OC(C)(C)C(=O)O`, the EC50 in experiment [1] is above 100 µM; in experiment [2], 1 to 100 µM; in experiment [3], below 1 µM.
On the same counts, the results for `Cc1cc(S(=O)(=O)N2CCN(c3cccc(Cl)c3)CC2)ccc1OC(C)(C)C(=O)O` are above 100 µM, 1 to 100 µM and 1 to 100 µM.
On the same counts, the results for `Cc1cc(S(=O)(=O)N2CCN(c3ccc([N+](=O)[O-])cc3)CC2)ccc1OC(C)(C)C(=O)O` are above 100 µM, 1 to 100 µM and 1 to 100 µM.
On the same counts, the results for `COc1cccc(N2CCN(S(=O)(=O)c3ccc(OC(C)(C)C(=O)O)c(C)c3)CC2)c1` are 1 to 100 µM, 1 to 100 µM and 1 to 100 µM.
As to `CC(C)(Oc1ccc(S(=O)(=O)N2CCN(c3ccccn3)CC2)cc1)C(=O)O`, the EC50 in experiment [1], in experiment [2] and in experiment [3] was above 100 µM in each case.

Source of the values: patent US20060258683A1, “Para-sulfonyl substituted phenyl compounds as modulators of ppars” (priority 2003, published 2006).
